The results in this text go back to patent US8790898B2 (priority 2008, dated 2014).

Test [1] relates to HIV-1 BZ 167. It counts as cell-based.
The target in test [2] is CBD1, C13K, CBD1/A and C10M peptides and the CBD1-KLH Construct (Human immunodeficiency virus type 1 group M subtype B, UniProt P04578). The conditions noted are these: guinea pig, in vivo.
Test [3] deals with CBD1, C13K, CBD1/A and C10M peptides and the CBD1-KLH Construct. The conditions noted are these: guinea pig, in vivo.
In test [4] the target is CBD1, C13K, CBD1/A and C10M peptides and the CBD1-KLH Construct (Human immunodeficiency virus type 1 group M subtype B, UniProt P04578, E630Q/H625N/T626M). Conditions: guinea pig, in vivo.
In test [5] the test system is CBD1 peptide and CBD1- and CBM-based peptides. More on the design: species or system BALB/c mice. The conditions noted are these: mouse, in vivo; for ELISA titer against C17K / ELISA C17K / ELISA K23M / ELISA K24W / ELISA K27M / ELISA K27W / ELISA K27W(G) / ELISA K30W(G) / ELISA against the Immunogen (OD) / ELISA p6362 / IgG2/IgG1 ratio: sc.
Test [6] deals with HIV-1 BZ 167. Format: cell-based. The conditions noted are these: for Inhibition of HIV-infection: 50-fold dilution of guinea pig immune sera (bleeds S5), HIV-1 BZ 167, p24 at 5 days post infection; for Inhibition of HIV infection: 100 fold dilution of guinea pig immune serum (bleeds S5), HIV-1 BZ 162, human CD4+ T lymphocytes.
Another test concerns the target CBD1 peptide (Human immunodeficiency virus type 1 group M subtype B, UniProt P04578, E630Q/H625N/T626M). The conditions noted are these: rabbits, 150 μg/injection, CFA, ten days after 5th immunization; against CBD1; reciprocal dilution giving OD450 = 0.1.
For test [7], the system named is primary HIV-1 BZ 167 isolate. Format: cell-based. The conditions noted are these: rabbit immune serum; dilution resulting 50% inhibition of HIV-1 infection; listed as CBD1.
For test [8], the system named is IgG antibodies in human HIV-1 positive sera. Format: binding. The conditions noted are these: for HIV-1 positive sera reacting in ELISA / sera tested / mean OD 450 nm ± S.D. of reacting sera: sera at 1000-fold dilution.
Test [9] has as its system CBD1 peptide specific IFN-γ spot forming cells. More on the design: species or system cynomolgus macaques (Macaca fascicularis). Conditions: cynomolgus monkey, in vivo.
The subject of test [10] is CBD1 (C18K) and the Tet peptide. On the set-up: species or system cynomolgus macaques (Macaca fascicularis). Conditions: cynomolgus monkey, in vivo.

Where “and” joins values, the source holds several entries; their conditions need not be identical. Equal entries are not always repeated. Entries after “also recorded” stand apart in the source; their conditions may differ. Where two headings read alike, the source gives them in different places.

“C-I-W-N-N-M-T-W-M-Q-W-D-K (CIWNNMTWMQWDK) [C13K]”: in the test on HIV-1 BZ 167 [1], the “% inhibition of HIV-1 at 200-fold dilution” value is “None” and the “Neutralizing activity ID50” value was “None”. The “ELISA C10M (titer)” value in [2] was <200. Further, in test [3], the “ELISA C13K (titer)” value was 400 and 200; the “ELISA CBD1/A (titer)” value was <200; the “ELISA KLH (titer against the CBD1-KLH construct)” value (“ELISA KLH” below) is reported as <200. The “ELISA CBD1 (titer)” value in [4] was <200. Further, in test [5], the “ELISA titer against C17K” value is 0.03 ± 0.02. Moreover, the “Inhibition of HIV-infection” value in the test on HIV-1 BZ 167 [6] is on record as “No Effect”.

Turning to “C-S-L-E-Q-I-A-N-N-M-T-A-M-Q-A-D-K (CSLEQIANNMTAMQADK) [CBD1/A]”, the “ELISA C10M (titer)” value in [2] is given as 16,000. In test [3], the “ELISA C13K (titer)” value was 2,000 and 1,000; the “ELISA CBD1/A (titer)” value is 128,000; the “ELISA KLH” value is reported as <200. Moreover, the “ELISA CBD1 (titer)” value in test [4] was 20,000 and 16,000. Also, in the test with HIV-1 BZ 167 [6], the “Inhibition of HIV-infection” value is “no apparent neutralizing activity; also recorded: No Effect” and the “Inhibition of HIV infection” value is reported as “did not inhibit”.

As to “C-S-L-E-Q-I-W-N-N-M-T-W-M-Q-W-D-K [C17K]”, the “Titer (ELISA)” value at CBD1 peptide was 768,000 and 640,000. Further, in the test on HIV-1 BZ 167 [1], the “% Inhibition of HIV-1 infection at 200-fold dilution” value was found to be 59%; the “% inhibition of HIV-1 at 200-fold dilution” value was 75%; the “HIV Inhibition (ID50)” value was 250 and 300; the “Neutralizing activity ID50” value is given as 250-fold. Besides, in the test on HIV-1 BZ 167 [1], the “Neutralizing activity ID50 Fold-Dilution” value is listed as 300-fold. In addition, in [2], the “ELISA C10M (titer)” value is 12,000. Moreover, in [3], the “ELISA C13K (titer)” value was 128,000; the “ELISA CBD1/A (titer)” value was 12,000 and 16,000; the “ELISA KLH” value was <200; the IgG2/1gG1 ratio was 4.10 and 3.75. In test [4], the “ELISA CBD1 (titer)” value is on record as 128,000; the “Titer (ELISA)” value is 128,000 and 96,000. Besides, in test [7], the “HIV Inhibition (ID50)” value is 250 and 200. Moreover, in [5], the IgG2/1gG1 ratio was 0.96 and 1.15; the “Titer (ELISA)” value was 256,000 and 384,000; the “ELISA C17K” value is given as 1.94 ± 0.28; the “ELISA K23M” value is <0.20. Moreover, in test [5], the “ELISA K24W” value is <0.20, the “ELISA K27M” value turned out to be 2.91 ± 0.26, the “ELISA K27W” value is <0.20 and the “ELISA K27W(G)” value is recorded as <0.20. Also, in test [5], the “ELISA K30W(G)” value is <0.20, the “ELISA against the Immunogen (OD)” value is listed as 1.22 OD, the “ELISA p6362” value is reported as 1.78 ± 0.22 and the “ELISA titer against C17K” value is recorded as 1.94 ± 0.45. Further, the IgG2/IgG1 ratio in test [5] turned out to be 1.08. Further, in the test with HIV-1 BZ 167 [6] (listed as CBD1), the “Inhibition of HIV-infection” value is 66% and 57%; the “Inhibition of HIV infection” value is 66% and 57%. Also, the “HIV Inhibition (ID50)” value with HIV-1 BZ 167 [6] (guinea pig immune serum, dilution resulting 50% inhibition of HIV-1 infection, listed as CBD1) was 50 and <50. Also, the “sera found to be positive in ELISA” value in [8] (another cohort of 75 HIV-1-positive individuals) is on record as “two”. Also, the “titer of anti-CBD1 peptide antibodies” value in test [8] (listed as CBD1) is 6,400 and 12,800. The “immunized animals in each group that developed a significant level of T-cell response against the CBD1 epitope” value in test [9] is listed as “one out of the three”. Moreover, in test [10], the “macaques that developed high antibody titers” value is given as “two out of the three; also recorded: one out of the three”.

As for “KRWIILGLNKIVRMYKKIWDNMTWMEW [K27W-2]”, in the test with HIV-1 BZ 167 [1], the “% Inhibition of HIV-1 infection at 200-fold dilution” value is reported as <10% and the “Neutralizing activity ID50 Fold-Dilution” value is reported as 100-fold. In test [5], the “ELISA C17K” value was <0.20, the “ELISA K23M” value was <0.02, the “ELISA K24W” value is listed as <0.02 and the “ELISA K27M” value is recorded as <0.20. In addition, in [5], the “ELISA K27W” value turned out to be 0.22 ± 0.08, the “ELISA K27W(G)” value is reported as 2.01 ± 0.73, the “ELISA K30W(G)” value was <0.20 and the “ELISA against the Immunogen (OD)” value is recorded as 2.01 OD. Further, the “ELISA p6362” value in test [5] is listed as <0.20.

Regarding “KRWIILGLNKIVRMYKKIWNNM [K23M]”, in the test with HIV-1 BZ 167 [1], the “% Inhibition of HIV-1 infection at 200-fold dilution” value was 11% and the “Neutralizing activity ID50 Fold-Dilution” value is 100-fold. For the same substance, in [5], the “immunized mice that developed peptide specific antibodies” value is 1 out of the five and ^aOnly 1 out of five mice immunized with the K23M peptide developed anti-K23M specific antibodies; the “ELISA C17K” value is given as <0.20; the “ELISA K23M” value was found to be 0.53; the “ELISA K24W” value is reported as <0.20. For the same substance, in test [5], the “ELISA K27M” value is <0.20, the “ELISA K27W” value is on record as <0.20, the “ELISA K27W(G)” value is reported as <0.20 and the “ELISA K30W(G)” value is listed as <0.20. For the same substance, in test [5], the “ELISA against the Immunogen (OD)” value was determined as 0.66 OD and the “ELISA p6362” value is reported as <0.20.

For “KRWIILGLNKIVRMYKKIWNNMTW [K24W]”, in the test with HIV-1 BZ 167 [1], the “% Inhibition of HIV-1 infection at 200-fold dilution” value turned out to be 88% and the “Neutralizing activity ID50 Fold-Dilution” value is listed as 450-fold. Also, in [5], the “ELISA C17K” value is recorded as <0.20, the “ELISA K23M” value is reported as 0.45 ± 0.40, the “ELISA K24W” value is 1.41 ± 0.55 and the “ELISA K27M” value was 0.87 ± 0.15. Besides, in test [5], the “ELISA K27W” value came to 0.21 ± 0.15, the “ELISA K27W(G)” value is 1.88 ± 0.66, the “ELISA K30W(G)” value is <0.20 and the “ELISA against the Immunogen (OD)” value was 1.55 OD. Moreover, in [5], the “ELISA p6362” value was <0.20.

For the substance “KRWIILGLNKIVRMYKKIWNNMTWMQW [K27W]”, in the test on HIV-1 BZ 167 [1], the “% Inhibition of HIV-1 infection at 200-fold dilution” value amounted to 65% and the “Neutralizing activity ID50 Fold-Dilution” value was 300-fold. In test [5], the “ELISA C17K” value was 0.24 ± 0.12, the “ELISA K23M” value is <0.20, the “ELISA K24W” value is given as <0.20 and the “ELISA K27M” value is on record as <0.20. Besides, in [5], the “ELISA K27W” value was found to be 1.49 ± 0.75, the “ELISA K27W(G)” value is reported as <0.20, the “ELISA K30W(G)” value worked out at 2.25 ± 0.20 and the “ELISA against the Immunogen (OD)” value is on record as 1.64 OD. Besides, the “ELISA p6362” value in test [5] is reported as <0.20.

As to “KRWIILGLNKIVRMYKKIWNNMTWMQWDK [K29K]”, in the test with HIV-1 BZ 167 [1], the “% inhibition of HIV-1 at 200-fold dilution” value is reported as 62% and the “Neutralizing activity ID50” value is given as 250-fold. In test [5], the “ELISA titer against C17K” value was found to be 1.80 ± 0.62 and the IgG2/IgG1 ratio is 4.95.

As to KLH-CSLEQIWNNMTWMQWDK [KLH-C17K], in test [2], the “ELISA C10M (titer)” value was <200. In test [3], the “ELISA C13K (titer)” value is recorded as <200, the “ELISA CBD1/A (titer)” value is on record as <200 and the “ELISA KLH” value was <200. Also, in [4], the “ELISA CBD1 (titer)” value was <200. Further, the “Inhibition of HIV-infection” value in the test with HIV-1 BZ 167 [6] was “No Effect”.

As for “RGDAQYIKANSKFIGITELKKIWNNMTWMQWDK (RGDAQYIKANSKFIGITELKKIWNNMTWMQWDK) [R33K]”, in the test on HIV-1 BZ 167 [1], the “% inhibition of HIV-1 at 200-fold dilution” value is listed as 64% and the “Neutralizing activity ID50” value was 200-fold. Further, in test [5], the “ELISA titer against C17K” value is listed as 1.66 ± 0.37 and the IgG2/IgG1 ratio is 4.05.

As for SLEQIWNNMTWMQWDK [CBD1 peptide 618-633], the “HIV-1 positive sera reacting in ELISA / sera tested” value in test [8] (Brazil, n = 22) is given as 1/22; in test [8] (Chili, n = 24) it was 1/24; in test [8] (France, n = 81) it was 4/81. The “mean OD 450 nm ± S.D. of reacting sera” value in [8] (Brazil, n = 22) worked out at 0.75 OD; in [8] (Chili, n = 24) it was 0.30 OD; in test [8] (France, n = 81), 0.33 ± 0.05 OD.
